Target: T1, Neuronal acetylcholine receptor subunit alpha-7 (Rattus norvegicus, UniProt Q05941)
Assay: biochemical
Description: In vitro binding affinity towards Nicotinic acetylcholine receptor alpha7 using [125I]-alpha-Bungarotoxin in rat brain

T1 sequence (Q05941 whole entry): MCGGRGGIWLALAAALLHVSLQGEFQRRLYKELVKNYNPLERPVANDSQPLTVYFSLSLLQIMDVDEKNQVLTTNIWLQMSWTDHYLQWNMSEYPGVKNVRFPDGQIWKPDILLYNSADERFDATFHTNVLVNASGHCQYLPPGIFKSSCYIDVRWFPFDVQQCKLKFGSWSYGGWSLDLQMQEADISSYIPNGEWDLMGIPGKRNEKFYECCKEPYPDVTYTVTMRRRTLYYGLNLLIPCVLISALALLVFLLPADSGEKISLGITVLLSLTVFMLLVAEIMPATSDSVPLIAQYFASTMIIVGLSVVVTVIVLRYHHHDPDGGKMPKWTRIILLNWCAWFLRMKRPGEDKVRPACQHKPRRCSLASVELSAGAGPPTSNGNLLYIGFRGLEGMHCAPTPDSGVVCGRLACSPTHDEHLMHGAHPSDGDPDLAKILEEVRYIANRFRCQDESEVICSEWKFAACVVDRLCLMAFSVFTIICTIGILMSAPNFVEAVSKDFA

| SMILES | Ki |
| --- | --- |
| O=c1cccc2n1C[C@@H]1CNC[C@H]2C1 [CYTISINICLINE] | 0.0009 µM |

Target: T1, Neuronal acetylcholine receptor subunit alpha-7
Assay: In vitro binding affinity towards Nicotinic acetylcholine receptor alpha7 using [125I]alpha-bungarotoxin in rat brain
Assay type: tissue-based

| SMILES | Ki |
| --- | --- |
| Cc1ncccc1OCC1CCCN1 (single isomer, unassigned; form 2) | > 10 µM |
| CN1CCCC[C@H]1[C@@H]1CCc2cc(O)ccc2O1 (racemic) | > 10 µM |
| CN1CCCC[C@H]1[C@H]1CCc2ccccc2O1 (racemic) | > 10 µM |
| Cc1ncccc1OCC1CCCN1 (single isomer, unassigned; form 1) [POZANICLINE] | > 10 µM |
| CN1CCCC[C@H]1[C@@H]1CCc2ccccc2O1 (racemic) | > 10 µM |
| CN1CCCC[C@H]1[C@H]1CCc2cc(O)ccc2O1 (racemic) | > 10 µM |

Reference: ChEMBL document CHEMBL1134328 (J Med Chem, 2001)
